Measurements as given in patent US20180370927A1, “MICROBIOCIDAL OXADIAZOLE DERIVATIVES” (SYNGENTA PARTICIPATIONS AG, priority 2015, published 2018).

What was measured:
[1] = system: Puccinia recondita f. Sp. Tritici; assay: Puccinia recondita f. sp. tritici / wheat / leaf disc preventative (brown rust); type: in vivo; details: foliar, 200 ppm in the applied formulation, wheat leaf segments, preventative, assessed 7 to 9 days after application, read-out: disease control compared to untreated control leaf disks
Experimental: (§1) Leaf disks or leaf segments of various plant species are cut from plants grown in a greenhouse. The cut leaf disks or segments are placed in multiwell plates (24-well format) onto water agar. The leaf disks are sprayed with a test solution before (preventative) or after (curative) inoculation. Compounds to be tested are prepared as DMSO solutions (max. 10 mg/mL) which are diluted to the appropriate concentration with 0.025% Tween20 just before spraying. The inoculated leaf disks or segments are incubated under defined conditions (temperature, relative humidity, light, etc.) according to the respective test system. A single evaluation of disease level is carried out 3 to 14 days after inoculation, depending on the pathosystem. Percent disease control relative to the untreated check leaf disks or segments is then calculated.
Example 1: Fungicidal Activity Against Puccinia recondita f. Sp. Tritici/Wheat/Leaf Disc Preventative (Brown Rust)
Wheat leaf segments cv. Kanzler were placed on agar in multiwell plates (24-well format) and sprayed with the formulated test compound diluted in water. The leaf disks were inoculated with a spore suspension of the fungus 1 day after application. The inoculated leaf segments were incubated at 19° C. and 75% relative humidity (rh) under a light regime of 12 hours light/12 hours darkness in a climate cabinet and the activity of a compound was assessed as percent disease control compared to untreated when an appropriate level of disease damage appears in untreated check leaf segments (7 to 9 days after application).
(§2) The following compounds at 200 ppm in the applied formulation give at least 80% disease control in this test when compared to untreated control leaf disks under the same conditions, which show extensive disease development.

[2] = system: Glomerella lacenarium (Colletotrichum lacenarium); assay: Glomerella lacenarium (Colletotrichum lacenarium) liquid culture / cucumber / preventative (anthracnose); type: cell-based; details: 20 ppm in the applied formulation, liquid culture in PDB, 24° C., 3 to 4 days after application, read-out: disease control (inhibition of growth, photometric) compared to untreated control
Experimental: Mycelia fragments or conidia suspensions of a fungus prepared either freshly from liquid cultures of the fungus or from cryogenic storage, are directly mixed into nutrient broth. DMSO solutions of the test compound (max. 10 mg/ml) are diluted with 0.025% Tween20 by a factor of 50 and 10 μL of this solution is pipetted into a microtiter plate (96-well format). The nutrient broth containing the fungal spores/mycelia fragments is then added to give an end concentration of the tested compound. The test plates are incubated in the dark at 24° C. and 96% relative humidity. The inhibition of fungal growth is determined photometrically after 2 to 7 days, depending on the pathosystem, and percent antifungal activity relative to the untreated check is calculated.
Example 4: Fungicidal Activity Against Glomerella lacenarium (Colletotrichum lacenarium) Liquid Culture/Cucumber/Preventative (Anthracnose)
Conidia of the fungus from cryogenic storage are directly mixed into nutrient broth (PDB—potato dextrose broth). After placing a (DMSO) solution of test compound into a microtiter plate (96-well format), the nutrient broth containing the fungal spores is added. The test plates are incubated at 24° C. and the inhibition of growth is measured photometrically 3 to 4 days after application.
The following compounds at 20 ppm in the applied formulation give at least 80% disease control in this test when compared to untreated control under the same conditions, which show extensive disease development.

[3] = system: Puccinia recondita f. Sp. Tritici; assay: Puccinia recondita f. sp. tritici / wheat / leaf disc curative (brown rust); type: in vivo; details: foliar, 200 ppm in the applied formulation, wheat leaf segments, curative (applied 1 day after inoculation), assessed 6 to 8 days after application, read-out: disease control compared to untreated control leaf disks
Experimental: as §1
Example 2: Fungicidal Activity Against Puccinia recondita f. Sp. Tritici/Wheat/Leaf Disc Curative (Brown Rust)
Wheat leaf segments cv. Kanzler are placed on agar in multiwell plates (24-well format). The leaf segments are then inoculated with a spore suspension of the fungus. Plates were stored in darkness at 19° C. and 75% relative humidity. The formulated test compound diluted in water was applied 1 day after inoculation. The leaf segments were incubated at 19° C. and 75% relative humidity under a light regime of 12 hours light/12 hours darkness in a climate cabinet and the activity of a compound was assessed as percent disease control compared to untreated when an appropriate level of disease damage appears in untreated check leaf segments (6 to 8 days after application).
as §2

For `CCCC(=O)C(=O)N(Cc1ccc(-c2noc(C(F)(F)F)n2)cc1)Cc1ccco1` [Compound 1.15, N-(2-furylmethyl)-2-oxo-N-[[4-[5-(trifluoromethyl)-1,2,4-oxadiazol-3-yl]phenyl]methyl]pentanamide], the pest or weed control at 200 ppm [1] was at least 80%, the inhibition at 20 ppm [2] was at least 80% and the pest or weed control at 200 ppm [3] was at least 80%.

`CC(=O)C(=O)NCc1ccc(-c2noc(C(F)(F)F)n2)c(F)c1` [Compound 1.25, N-[[3-fluoro-4-[5-(trifluoromethyl)-1,2,4-oxadiazol-3-yl]phenyl]methyl]-2-oxo-propanamide] gave a pest or weed control at 200 ppm [1] of at least 80%, an inhibition at 20 ppm [2] of at least 80% and a pest or weed control at 200 ppm [3] of at least 80%.

Work on `CON(Cc1ccc(-c2noc(C(F)(F)F)n2)cc1)C(=O)C(=O)N1CCOCC1` [Compound 4.80, N-methoxy-2-morpholino-2-oxo-N-[[4-[5-(trifluoromethyl)-1,2,4-oxadiazol-3-yl]phenyl]methyl] acetamide] yielded a pest or weed control at 200 ppm [1] of at least 80%, an inhibition at 20 ppm [2] of at least 80% and a pest or weed control at 200 ppm [3] of at least 80%.

`CC(C)NC(=O)C(=O)NCc1ccc(-c2noc(C(F)(F)F)n2)cc1` [Compound 4.46, N′-isopropyl-N-[[4-[5-(trifluoromethyl)-1,2,4-oxadiazol-3-yl]phenyl]methyl] oxamide] showed a pest or weed control at 200 ppm [1] of at least 80%, an inhibition at 20 ppm [2] of at least 80% and a pest or weed control at 200 ppm [3] of at least 80%.

Compound `CCC(C)NC(=O)C(=O)N(Cc1ccc(-c2noc(C(F)(F)F)n2)cc1)OC` (stereo not shown) [Compound 4.61, N′-methoxy-N-sec-butyl-N′-[[4-[5-(trifluoromethyl)-1,2,4-oxadiazol-3-yl]phenyl]methyl] oxamide] has a pest or weed control at 200 ppm [1] of at least 80%, an inhibition at 20 ppm [2] of at least 80% and a pest or weed control at 200 ppm [3] of at least 80%.

`COCCN(Cc1ccc(-c2noc(C(F)(F)F)n2)cc1)C(=O)C(N)=O` [Compound 4.12, N′-(2-methoxyethyl)-N′-[[4-[5-(trifluoromethyl)-1,2,4-oxadiazol-3-yl]phenyl]methyl] oxamide] gave a pest or weed control at 200 ppm [1] of at least 80%, an inhibition at 20 ppm [2] of at least 80% and a pest or weed control at 200 ppm [3] of at least 80%.

With `CCONC(=O)C(=O)N(Cc1ccc(-c2noc(C(F)(F)F)n2)cc1)OC` [Compound 4.74, N-ethoxy-N′-methoxy-N′-[[4-[5-(trifluoromethyl)-1,2,4-oxadiazol-3-yl]phenyl]methyl] oxamide] the pest or weed control at 200 ppm [1] was at least 80%, the inhibition at 20 ppm [2] was at least 80% and the pest or weed control at 200 ppm [3] was at least 80%.

`CNC(=O)C(=O)N(C)Cc1ccc(-c2noc(C(F)(F)F)n2)cc1` [Compound 4.99, N,N′-dimethyl-N′-[[4-[5-(trifluoromethyl)-1,2,4-oxadiazol-3-yl]phenyl]methyl] oxamide] gave a pest or weed control at 200 ppm [1] of at least 80%, an inhibition at 20 ppm [2] of at least 80% and a pest or weed control at 200 ppm [3] of at least 80%.

`CC(=O)C(=O)NCc1ccc(-c2noc(C(F)(F)F)n2)c(F)c1F` [Compound 1.27, N-[[2,3-difluoro-4-[5-(trifluoromethyl)-1,2,4-oxadiazol-3-yl]phenyl]methyl]-2-oxo-propanamide] gave a pest or weed control at 200 ppm [1] of at least 80%, an inhibition at 20 ppm [2] of at least 80% and a pest or weed control at 200 ppm [3] of at least 80%.

`CCCONC(=O)C(=O)NCc1ccc(-c2noc(C(F)(F)F)n2)cc1` [Compound 4.42, N′-propoxy-N-[[4-[5-(trifluoromethyl)-1,2,4-oxadiazol-3-yl]phenyl]methyl] oxamide] was tested, and the pest or weed control at 200 ppm [1] was at least 80%, the inhibition at 20 ppm [2] was at least 80% and the pest or weed control at 200 ppm [3] was at least 80%.

Compound `CN(C)C(=O)C(=O)Nc1ccc(-c2noc(C(F)(F)F)n2)cn1` [Compound 4.10, N′,N′-dimethyl-N-[5-[5-(trifluoromethyl)-1,2,4-oxadiazol-3-yl]-2-pyridyl] oxamide] has a pest or weed control at 200 ppm [1] of at least 80% and a pest or weed control at 200 ppm [3] of at least 80%.

In the case of `CON(Cc1ccc(-c2noc(C(F)(F)F)n2)cc1)C(=O)C(=O)OC1COC1` [Compound 3.3, oxetan-3-yl 2-[methoxy-[[4-[5-(trifluoromethyl)-1,2,4-oxadiazol-3-yl]phenyl]methyl]amino]-2-oxo-acetate], the pest or weed control at 200 ppm [1] is reported as at least 80%, the inhibition at 20 ppm [2] is reported as at least 80% and the pest or weed control at 200 ppm [3] is reported as at least 80%.

`CON(Cc1ccc(-c2noc(C(F)(F)F)n2)cc1)C(=O)C(=O)NC1CCC1` [Compound 4.72, N-cyclobutyl-N′-methoxy-N′-[[4-[5-(trifluoromethyl)-1,2,4-oxadiazol-3-yl]phenyl]methyl] oxamide] showed a pest or weed control at 200 ppm [1] of at least 80%, an inhibition at 20 ppm [2] of at least 80% and a pest or weed control at 200 ppm [3] of at least 80%.

Compound `CON(Cc1ccc(-c2noc(C(F)(F)F)n2)cc1)C(=O)C(=O)O` [Compound 3.7, 2-[methoxy-[[4-[5-(trifluoromethyl)-1,2,4-oxadiazol-3-yl]phenyl]methyl]amino]-2-oxo-acetic acid] has an inhibition at 20 ppm [2] of at least 80% and a pest or weed control at 200 ppm [3] of at least 80%.

With `CC(C)(CS(C)(=O)=O)NC(=O)C(=O)Nc1ccc(-c2noc(C(F)(F)F)n2)cc1` [Compound 4.17] the pest or weed control at 200 ppm [1] was at least 80% and the pest or weed control at 200 ppm [3] was at least 80%.

`CCNC(=O)C(=O)NCc1ccc(-c2noc(C(F)(F)F)n2)cc1` [Compound 4.49, N-ethyl-N′-[[4-[5-(trifluoromethyl)-1,2,4-oxadiazol-3-yl]phenyl]methyl] oxamide] gave a pest or weed control at 200 ppm [1] of at least 80% and an inhibition at 20 ppm [2] of at least 80%.

With `CC(=O)C(=O)N(Cc1ccc(-c2noc(C(F)(F)F)n2)cc1)OCC=C(Cl)Cl` [Compound 1.22, N-(3,3-dichloro-allyloxy)-2-oxo-N-[[4-[5-(trifluoromethyl)-1,2,4-oxadiazol-3-yl]phenyl]methyl]propanamide] the pest or weed control at 200 ppm [1] was at least 80% and the inhibition at 20 ppm [2] was at least 80%.

Work on `CCCC(=O)C(=O)N(Cc1ccc(-c2noc(C(F)(F)F)n2)cc1)CC1CCCO1` (stereo not shown) [Compound 1.13, 2-oxo-N-(tetrahydrofuran-2-ylmethyl)-N-[[4-[5-(trifluoromethyl)-1,2,4-oxadiazol-3-yl]phenyl]methyl]pentanamide] yielded a pest or weed control at 200 ppm [1] of at least 80% and an inhibition at 20 ppm [2] of at least 80%.

`C=CCNC(=O)C(=O)NCc1ccc(-c2noc(C(F)(F)F)n2)cc1` [Compound 4.57, N-allyl-N′-[[4-[5-(trifluoromethyl)-1,2,4-oxadiazol-3-yl]phenyl]methyl] oxamide] was tested, and the pest or weed control at 200 ppm [1] was at least 80% and the inhibition at 20 ppm [2] was at least 80%.

`CN(C)C(=O)C(=O)N(Cc1ccc(-c2noc(C(F)(F)F)n2)cc1)OCC=C(Cl)Cl` [Compound 4.31, N′-(3,3-dichloroallyloxy)-N,N-dimethyl-N′-[[4-[5-(trifluoromethyl)-1,2,4-oxadiazol-3-yl]phenyl]methyl] oxamide] gave a pest or weed control at 200 ppm [1] of at least 80% and an inhibition at 20 ppm [2] of at least 80%.

With `CON(Cc1ccc(-c2noc(C(F)(F)F)n2)cc1)C(=O)C(=O)Nc1ccccc1` [Compound 4.70, N′-methoxy-N-phenyl-N′-[[4-[5-(trifluoromethyl)-1,2,4-oxadiazol-3-yl]phenyl]methyl] oxamide] the pest or weed control at 200 ppm [1] was at least 80% and the inhibition at 20 ppm [2] was at least 80%.

`NC(=O)C(=O)N(Cc1ccc(-c2noc(C(F)(F)F)n2)cc1)OCc1ccc(Cl)cc1` [Compound 4.34, N′-[(4-chlorophenyl)methoxy]-N′-[[4-[5-(trifluoromethyl)-1,2,4-oxadiazol-3-yl]phenyl]methyl] oxamide] gave a pest or weed control at 200 ppm [1] of at least 80% and an inhibition at 20 ppm [2] of at least 80%.

`NC(=O)C(=O)N(Cc1ccc(-c2noc(C(F)(F)F)n2)cc1)OCC=C(Cl)Cl` [Compound 4.32, N′-(3,3-dichloroallyloxy)-N′-[[4-[5-(trifluoromethyl)-1,2,4-oxadiazol-3-yl]phenyl]methyl] oxamide] showed a pest or weed control at 200 ppm [1] of at least 80% and an inhibition at 20 ppm [2] of at least 80%.
